This passage reports IC50 results from patent publication US20250034150A1, “BTK INHIBITORS” (BIOGEN MA INC., priority 2021, published 2025).

One test deals with T1, BTK (Homo sapiens, UniProt Q06187).
T1 construct: purchased Upstate 14-552
Description: In Vitro BTK Kinase Assay: Btk-PolyGAT-LS Assay. In kind it is biochemical. Conditions: active BTK enzyme 0.25 nM, polyGAT 100 nM, 30 minutes, TRF readout; read-out: In Vitro BTK Kinase Assay IC50 Score. The method in brief:
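Active BTK at 0.25 nM phosphorylated 100 nM fluorescein-polyGAT peptide at 10 μM ATP for 30 minutes. Buffer was Tris pH 7.5 with MgCl2, DTT, Triton X-100 and casein, and reactions were stopped with EDTA. Phospho-peptide was detected by Tb-PY20 antibody TR-FRET, and IC50 came from a four-parameter fit normalized to DMSO and EDTA controls.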

Test [1] relates to CD69 expression on CD19+ B cells in human whole blood. Description: In Vitro whole blood CD69 Assay. In kind it is cell-based. Conditions: B-cell, read-out: In Vitro HWB CD69 Assay IC50 Score. The method in brief:
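Heparinized healthy-donor human whole blood was preincubated with compound (0.1% DMSO) for 30 min at 37 °C. Stimulation used 0.1 µg/mL anti-IgD-dextran or 20 µg/mL rabbit F(ab′)2 anti-IgD for 18–22 h at 37 °C. CD69 on gated CD19+ B cells was then measured by flow cytometry.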

Setting [2] is: human heparinized whole blood, anti-human IgD stimulation overnight, CD19+ B cells, flow cytometry.

Molecules are shown by their SMILES. Counter-ions that a name gives are not always drawn. Like-named read-outs stand apart in the source and are kept apart here.

T1 sequence (Q06187 whole entry): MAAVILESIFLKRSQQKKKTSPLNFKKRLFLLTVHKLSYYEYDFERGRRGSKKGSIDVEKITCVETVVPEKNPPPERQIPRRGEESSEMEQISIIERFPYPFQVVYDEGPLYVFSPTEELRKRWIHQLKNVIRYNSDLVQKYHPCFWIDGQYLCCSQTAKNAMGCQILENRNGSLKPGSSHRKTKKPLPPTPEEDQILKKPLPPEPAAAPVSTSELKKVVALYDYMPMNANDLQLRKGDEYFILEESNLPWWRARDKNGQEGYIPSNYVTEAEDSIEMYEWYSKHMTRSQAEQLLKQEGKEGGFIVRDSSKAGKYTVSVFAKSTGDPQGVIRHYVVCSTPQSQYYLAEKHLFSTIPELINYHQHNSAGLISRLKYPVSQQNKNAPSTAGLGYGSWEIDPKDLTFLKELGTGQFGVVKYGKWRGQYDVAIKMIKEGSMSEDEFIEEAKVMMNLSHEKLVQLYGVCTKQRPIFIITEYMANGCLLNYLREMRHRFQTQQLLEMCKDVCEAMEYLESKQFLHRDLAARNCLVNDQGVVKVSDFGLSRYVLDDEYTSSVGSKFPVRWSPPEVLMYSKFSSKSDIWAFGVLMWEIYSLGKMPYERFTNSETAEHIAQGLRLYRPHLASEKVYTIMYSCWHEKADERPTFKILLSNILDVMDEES

Turning to `Cn1cc(-c2cc3nccn3c(-c3ccc(CNC(=O)c4noc(C5(C)CC5)n4)cc3)n2)cn1` [Example 60, N-(4-(7-(1-methyl-1H-pyrazol-4-yl)imidazo[1,2-c]pyrimidin-5-yl)benzyl)-5-(1-methylcyclopropyl)-1,2,4-oxadiazole-3-carboxamide], the IC50 was 1 to 10 nM on BTK and 1000 to 10000 nM in test [1] (setting [2]).

As for `Cn1cc(-c2cn3nccc3c(N3CCC(C)(CNC(=O)c4cnc(C(C)(C)C)o4)CC3)n2)cn1` [Example 45, 2-(tert-butyl)-N-((4-methyl-1-(6-(1-methyl-1H-pyrazol-4-yl)pyrazolo[1,5-a]pyrazin-4-yl)piperidin-4-yl)methyl)oxazole-5-carboxamide], the IC50 was in the range of 10 to 1000 nM on BTK and 1000 to 10000 nM in test [1] (setting [2]).

With `CC1CC(CNC(=O)c2noc(C3(C)CC3)n2)CCN1c1nc(-c2cnn(C)c2)cn2nccc12` (centres unmarked) [Example 139, N-((2-methyl-1-(6-(1-methyl-1H-pyrazol-4-yl)pyrazolo[1,5-a]pyrazin-4-yl)piperidin-4-yl)methyl)-5-(1-methylcyclopropyl)-1,2,4-oxadiazole-3-carboxamide], the IC50 was 1 to 10 nM at BTK and 1000 to 10000 nM in test [1] (setting [2]).

As to `Cn1cc(-c2cn3nccc3c(-c3ccc(CNC(=O)c4nnn(C(C)(C)C)n4)c(F)c3F)n2)cn1` [Example 87, 2-(tert-butyl)-N-(2,3-difluoro-4-(6-(1-methyl-1H-pyrazol-4-yl)pyrazolo[1,5-a]pyrazin-4-yl)benzyl)-2H-tetrazole-5-carboxamide], the results for the IC50 (on BTK; in test [1] (setting [2])) were under 1 nM and under 1000 nM, respectively.

Regarding `Cn1cc(-c2cn3nccc3c(-c3cc(F)c(CNC(=O)c4coc(C(C)(C)C)n4)cc3F)n2)cn1` [Example 95, 2-(tert-butyl)-N-(2,5-difluoro-4-(6-(1-methyl-1H-pyrazol-4-yl)pyrazolo[1,5-a]pyrazin-4-yl)benzyl)oxazole-4-carboxamide], the IC50 on BTK was in the range of 1 to 10 nM; in test [1] (setting [2]), 1000 to 10000 nM.

For the compound `Cc1cc(-c2nc(-c3cnn(C)c3)cn3nccc23)ccc1CNC(=O)c1nnn(C(C)(C)C)n1` [Example 15, 2-(tert-butyl)-N-(2-methyl-4-(6-(1-methyl-1H-pyrazol-4-yl)pyrazolo[1,5-a]pyrazin-4-yl)benzyl)-2H-tetrazole-5-carboxamide], the IC50 on BTK was under 1 nM; in test [1] (setting [2]) it was under 1000 nM.

Turning to `C[C@@H]1C[C@@H](CNC(=O)c2cn(C(C)(C)C)nn2)CCN1c1nc(-c2cnn(C)c2)cn2nccc12` (single isomer, unassigned) [Example 143], the IC50 on BTK was in the range of 1 to 10 nM; in test [1] (setting [2]), 1000 to 10000 nM.

On to `COCCOc1cn2nccc2c(-c2ccc(CNC(=O)c3cn(C(C)(C)C)nn3)c(C)c2)n1` [Example 122, 1-(tert-butyl)-N-(4-(6-(2-methoxyethoxy)pyrazolo[1,5-a]pyrazin-4-yl)-2-methylbenzyl)-1H-1,2,3-triazole-4-carboxamide], for which the IC50 at BTK was 1 to 10 nM; in test [1] (setting [2]), under 1000 nM.

For `Cc1cc(-c2nc(N3CCOCC3)cn3nccc23)ccc1CNC(=O)c1cn(C(C)(C)C)nn1` [Example 120, 1-(tert-butyl)-N-(2-methyl-4-(6-morpholinopyrazolo[1,5-a]pyrazin-4-yl)benzyl)-1H-1,2,3-triazole-4-carboxamide], the figures for the 50% inhibitory concentration (IC50) (at BTK; in test [1] (setting [2])) were 1 to 10 nM and 1000 to 10000 nM, respectively.

Consider `Cn1cc(-c2cc3nccn3c(-c3ccc(CNC(=O)c4cnn(C(C)(C)C)c4)cc3)n2)cn1` [Example 57, 1-(tert-butyl)-N-(4-(7-(1-methyl-1H-pyrazol-4-yl)imidazo[1,2-c]pyrimidin-5-yl)benzyl)-1H-pyrazole-4-carboxamide], for which the IC50 was 1 to 10 nM on BTK and 1000 to 10000 nM in test [1] (setting [2]).

`Cn1cc(-c2cn3nccc3c(N3CC[C@@H](CNC(=O)c4noc(C(C)(C)C)n4)C(F)(F)C3)n2)cn1` (single isomer, unassigned) [Example 158]: the values for the IC50 (on BTK; in test [1] (setting [2])) were under 1 nM and under 1000 nM, respectively.

Consider `CC(C)(C)c1noc(C(=O)NCc2ccc(-c3nc(N4CCOCC4)cn4nccc34)cc2)n1` [Example 24, 3-(tert-butyl)-N-(4-(6-morpholinopyrazolo[1,5-a]pyrazin-4-yl)benzyl)-1,2,4-oxadiazole-5-carboxamide], for which the IC50 is 10 to 1000 nM on BTK and 1000 to 10000 nM in test [1] (setting [2]).

For `Cc1cc(-c2nc(-c3cnn(C)c3)cn3nccc23)ccc1CNC(=O)c1cnn(C(C)(C)C)c1` [Example 17, 1-(tert-butyl)-N-(2-methyl-4-(6-(1-methyl-1H-pyrazol-4-yl)pyrazolo[1,5-a]pyrazin-4-yl)benzyl)-1H-pyrazole-4-carboxamide], the IC50 at BTK was under 1 nM; in test [1] (setting [2]), under 1000 nM.

With `Cn1cc(-c2cc3nccn3c(-c3ccc(CNC(=O)c4nc(C5(CF)CC5)no4)cc3)n2)cn1` [Example 63, 3-(1-(fluoromethyl)cyclopropyl)-N-(4-(7-(1-methyl-1H-pyrazol-4-yl)imidazo[1,2-c]pyrimidin-5-yl)benzyl)-1,2,4-oxadiazole-5-carboxamide], the figures for the IC50 (at BTK; in test [1] (Homo sapiens)) were 1 to 10 nM and 1000 to 10000 nM, respectively.

Take `Cn1cc(-c2cn3nccc3c(N3CCC(CNC(=O)c4cn(C(C)(C)C)nn4)CC3)n2)cn1` [Example 138, 1-(tert-butyl)-N-((1-(6-(1-methyl-1H-pyrazol-4-yl)pyrazolo[1,5-a]pyrazin-4-yl)piperidin-4-yl)methyl)-1H-1,2,3-triazole-4-carboxamide]: the IC50 at BTK lay within 1 to 10 nM; in test [1] (setting [2]) it was 1000 to 10000 nM.

Regarding `Cn1cc(-c2cn3nccc3c(-c3ccc(CNC(=O)c4noc(C(C)(C)C)n4)cc3F)n2)cn1` [Example 83, 5-(tert-butyl)-N-(3-fluoro-4-(6-(1-methyl-1H-pyrazol-4-yl)pyrazolo[1,5-a]pyrazin-4-yl)benzyl)-1,2,4-oxadiazole-3-carboxamide], the IC50 is 1 to 10 nM on BTK and under 1000 nM in test [1] (setting [2]).

On to `Cn1cc(-c2cn3nccc3c(N3CCC(F)(CNC(=O)c4noc(C5(C)CC5)n4)CC3)n2)cn1` [Example 161, N-((4-fluoro-1-(6-(1-methyl-1H-pyrazol-4-yl)pyrazolo[1,5-a]pyrazin-4-yl)piperidin-4-yl)methyl)-5-(1-methylcyclopropyl)-1,2,4-oxadiazole-3-carboxamide trifluoroacetate], for which the IC50 on BTK lay in the range of 1 to 10 nM; in test [1] (setting [2]), 1000 to 10000 nM.

With `Cn1cc(-c2cn3nccc3c(-c3ccc(CNC(=O)c4nnn(C(C)(C)C)n4)c(C(F)F)c3)n2)cn1` [Example 106, 2-(tert-butyl)-N-(2-(difluoromethyl)-4-(6-(1-methyl-1H-pyrazol-4-yl)pyrazolo[1,5-a]pyrazin-4-yl)benzyl)-2H-tetrazole-5-carboxamide], the IC50 was under 1 nM on BTK and under 1000 nM in test [1] (setting [2]).

For the compound `CC1CN(c2nc(-c3cnn(C)c3)cn3nccc23)CCC1CNC(=O)c1noc(C(C)(C)C)n1` (centres unmarked) [Example 144, 5-(tert-butyl)-N-((3-methyl-1-(6-(1-methyl-1H-pyrazol-4-yl)pyrazolo[1,5-a]pyrazin-4-yl)piperidin-4-yl)methyl)-1,2,4-oxadiazole-3-carboxamide], the values for the IC50 (on BTK; in test [1] (Homo sapiens)) were 1 to 10 nM and under 1000 nM, respectively.

In the case of `Cn1cc(-c2cn3nccc3c(-c3ccc(CNC(=O)c4coc(C(C)(C)C)n4)c(C(F)F)c3)n2)cn1` [Example 101, 2-(tert-butyl)-N-(2-(difluoromethyl)-4-(6-(1-methyl-1H-pyrazol-4-yl)pyrazolo[1,5-a]pyrazin-4-yl)benzyl)oxazole-4-carboxamide], the IC50 on BTK was 1 to 10 nM; in test [1] (setting [2]), 1000 to 10000 nM.

As to `Cn1cc(-c2cn3ncnc3c(N3CCC(CNC(=O)c4nnn(C(C)(C)C)n4)CC3)n2)cn1` [Example 72, 2-(tert-butyl)-N-((1-(6-(1-methyl-1H-pyrazol-4-yl)-[1,2,4]triazolo[1,5-a]pyrazin-8-yl)piperidin-4-yl)methyl)-2H-tetrazole-5-carboxamide], the IC50 was 1 to 10 nM at BTK and 1000 to 10000 nM in test [1] (setting [2]).

`Cn1cc(-c2cn3nccc3c(N3CC[C@H](CNC(=O)c4coc(C(C)(C)C)n4)[C@H](F)C3)n2)cn1` [Example 153, 2-(tert-butyl)-N-(((3S,4R)-3-fluoro-1-(6-(1-methyl-1H-pyrazol-4-yl)pyrazolo[1,5-a]pyrazin-4-yl)piperidin-4-yl)methyl)oxazole-4-carboxamide]: the IC50 was 1 to 10 nM at BTK and 1000 to 10000 nM in test [1] (setting [2]).

As for `Cc1cc(-c2cc(-c3cnn(C)c3)cn3nccc23)ccc1CNC(=O)c1noc(C2(C)CC2)n1` [Example 65, N-(2-methyl-4-(6-(1-methyl-1H-pyrazol-4-yl)pyrazolo[1,5-a]pyridin-4-yl)benzyl)-5-(1-methylcyclopropyl)-1,2,4-oxadiazole-3-carboxamide], the IC50 is under 1 nM at BTK and under 1000 nM in test [1] (Homo sapiens).

For the compound `CN1CCN(c2cn3nccc3c(-c3ccc(CNC(=O)c4nc(C(C)(C)C)no4)c(F)c3)n2)CC1` [Example 118, 3-(tert-butyl)-N-(2-fluoro-4-(6-(4-methylpiperazin-1-yl)pyrazolo[1,5-a]pyrazin-4-yl)benzyl)-1,2,4-oxadiazole-5-carboxamide], the IC50 at BTK fell in the range of 1 to 10 nM; in test [1] (setting [2]) it was 1000 to 10000 nM.

In the case of `Cn1cc(-c2cn3nccc3c(N3CC[C@H](CNC(=O)c4noc(C(C)(C)C)n4)[C@H](F)C3)n2)cn1` (single isomer, unassigned) [Example 155], the IC50 on BTK lay within 1 to 10 nM; in test [1] (setting [2]), 1000 to 10000 nM.

Broadly, the IC50 is the concentration needed to halve the response being measured.
